Experimental data from publication PMC12527922, “Cocaine chemogenetics blunts drug-seeking by synthetic physiology” (Nature, 2025).
“And” between values parts separate entries of the source, which are not always exact repeats. Equal entries are not always repeated.

Columns and labels:
[1] = molecular target: coca-5HT3 (α7(L141G,G175K,Y210F,Y217F)–5HT3) (Homo sapiens, UniProt P36544, G175K/L141G/Y210F/Y217F); assay: Membrane potential assay, coca-5HT3 in HEK293; details: for Max normalized response, AVG / Max normalized response, replicates / Response, dose-response replicates (DR 1-4) / max response of each dose-response replicate: coca5HT3; for max response of each dose-response replicate: used for normalization; for Response / Max normalized Response: coca-5HT3; for activation of coca-5HT3: membrane potential assay dose response; for Max normalized Response: ED Fig 3b
coca-5HT3 (α7(L141G,G175K,Y210F,Y217F)–5HT3), sequence (P36544 23-224 L141G/G175K/Y210F/Y217F): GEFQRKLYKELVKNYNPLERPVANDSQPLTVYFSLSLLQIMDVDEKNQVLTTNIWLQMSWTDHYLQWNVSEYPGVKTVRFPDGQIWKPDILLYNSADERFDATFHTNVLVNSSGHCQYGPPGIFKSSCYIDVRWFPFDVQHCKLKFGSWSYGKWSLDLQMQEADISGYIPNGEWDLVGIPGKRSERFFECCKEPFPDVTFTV
coca-5HT3 (α7(L141G,G175K,Y210F,Y217F)–5HT3), sequence (P23979 242-489, further chain): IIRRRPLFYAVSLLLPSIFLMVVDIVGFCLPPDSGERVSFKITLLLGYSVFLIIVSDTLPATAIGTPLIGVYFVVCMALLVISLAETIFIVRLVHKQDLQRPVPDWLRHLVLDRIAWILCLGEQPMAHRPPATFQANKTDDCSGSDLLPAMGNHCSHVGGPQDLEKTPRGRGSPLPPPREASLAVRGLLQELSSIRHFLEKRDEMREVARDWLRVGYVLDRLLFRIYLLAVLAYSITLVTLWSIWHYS

unmodified α7–5HT3 = molecular target: T1, unmodified α7–5HT3 (UniProt P23979+P36544, M226I/T225I); assay: Membrane potential assay, unmodified α7–5HT3; format: cell-based, human α7 nAChR LBD, mouse 5HT3 IPD
T1 construct: expressed in transfected cells; host or cells: HEK293 (ATCC CRL-1573), pcDNA3.1
T1 sequence (P36544+P23979 fused P36544:T225I/P36544:M226I): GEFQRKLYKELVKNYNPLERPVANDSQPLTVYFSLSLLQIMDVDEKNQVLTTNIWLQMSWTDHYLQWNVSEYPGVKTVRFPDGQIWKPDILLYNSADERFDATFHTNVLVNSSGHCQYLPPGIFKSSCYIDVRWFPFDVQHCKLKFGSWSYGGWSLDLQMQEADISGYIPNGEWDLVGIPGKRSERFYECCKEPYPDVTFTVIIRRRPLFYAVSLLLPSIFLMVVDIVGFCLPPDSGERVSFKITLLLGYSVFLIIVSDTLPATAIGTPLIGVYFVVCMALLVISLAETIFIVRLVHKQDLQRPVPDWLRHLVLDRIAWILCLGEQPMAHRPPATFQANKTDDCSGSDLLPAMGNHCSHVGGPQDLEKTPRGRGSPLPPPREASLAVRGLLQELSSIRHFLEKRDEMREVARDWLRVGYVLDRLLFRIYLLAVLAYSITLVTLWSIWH

[2] = a75HT3, [Nicotine] 0.0457247 uM

## C[N+](C)(C)CCO [choline]
[1]; EC50 above peak physiological levels
  EC50 relative to peak physiological levels: about 100 fold
[1]; Choline Conc 1.37174 uM
  Max normalized response, AVG: 0.0611
  Max normalized response, replicates: 0.1043 and 0.06655 and 0.04444 and 0.02913
  Response, dose-response replicates (DR 1-4): 0.056 and 0.037 and 0.008 and 0.006
[1]; Choline Conc 12.3457 uM
  Max normalized response, AVG: 0.06296
  Max normalized response, replicates: 0.05773 and 0.04496 and 0.02778 and 0.1214
  Response, dose-response replicates (DR 1-4): 0.031 and 0.025 (2×) and 0.005
[1]; Choline Conc 37.037 uM
  Max normalized response, AVG: 0.0516
  Max normalized response, replicates: 0.04283 and 0.03237 and 0.07778 and 0.0534
  Response, dose-response replicates (DR 1-4): 0.023 and 0.018 and 0.014 and 0.011
[1]; Choline Conc 111.111 uM
  Max normalized response, AVG: 0.04734
  Max normalized response, replicates: 0.03724 and 0.04317 and 0.05556 and 0.0534
  Response, dose-response replicates (DR 1-4): 0.02 and 0.024 and 0.01 and 0.011
[1]; Choline Conc 333.333 uM
  Max normalized response, AVG: 0.07674
  Max normalized response, replicates: 0.0838 and 0.08993 and 0.05556 and 0.07767
  Response, dose-response replicates (DR 1-4): 0.045 and 0.05 and 0.01 and 0.016
[1]; Choline Conc 1000 uM
  Max normalized response, AVG: 0.4005
  Max normalized response, replicates: 0.4022 and 0.5288 and 0.3556 and 0.3155
  Response, dose-response replicates (DR 1-4): 0.216 and 0.294 and 0.064 and 0.065
[1]; Choline Conc 3000 uM
  Max normalized response, AVG: 1
  Max normalized response, replicates: 1
  Response, dose-response replicates (DR 1-4): 0.537 and 0.556 and 0.18 and 0.206
[1]; Choline
  max response of each dose-response replicate: 0.537 and 0.556 and 0.18 and 0.206
[1]; half-maximum effective concentration (EC50), HEK293, fluorescence membrane potential assay
  EC50: 1210 µM

## CC(=O)Oc1ccc2c3c1O[C@H]1[C@@H](OC(C)=O)C=C[C@H]4[C@@H](C2)N(C)CC[C@@]341 [heroin]
[1]; conc 0.0137 uM, ED Fig. 2c
  Response: 0.058
[1]; conc 0.123 uM, ED Fig. 2c
  Response: 0.046
[1]; conc 0.37 uM, ED Fig. 2c
  Response: 0.054
[1]; conc 10 uM, ED Fig. 2c
  Response: 0.109
[1]; conc 30 uM, ED Fig. 2c
  Response: 0.105
[1]
  activation of coca-5HT3: did not activate

## CN[C@@H](C)Cc1ccccc1 [methamphetamine]
[1]; conc 0.0137 uM, ED Fig. 2c
  Response: 0.198
[1]; conc 0.123 uM, ED Fig. 2c
  Response: 0.256
[1]; conc 0.37 uM, ED Fig. 2c
  Response: 0.136
[1]; conc 10 uM, ED Fig. 2c
  Response: 0.224
[1]; conc 30 uM, ED Fig. 2c
  Response: 0.204
[1]
  activation of coca-5HT3: did not activate

## CN1CC[C@]23c4c5ccc(O)c4O[C@H]2[C@@H](O)C=C[C@H]3[C@H]1C5 [morphine]
[1]; conc 0.0137 uM, ED Fig. 2c
  Response: 0.063
[1]; conc 0.123 uM, ED Fig. 2c
  Response: 0.114
[1]; conc 0.37 uM, ED Fig. 2c
  Response: 0.04
[1]; conc 10 uM, ED Fig. 2c
  Response: 0.069
[1]; conc 30 uM, ED Fig. 2c
  Response: 0.121
[1]
  activation of coca-5HT3: did not activate

## CCCC[N+]1(C)[C@@H]2C[C@@H](OC(=O)[C@H](CO)c3ccccc3)C[C@H]1[C@@H]1O[C@@H]12 (stereo partly shown) [n-Butylscopolamine]
[1]; conc 0.137 uM
  Max normalized Response: 0.07428
[1]; conc 3.7 uM
  Max normalized Response: 0.05731
[1]; conc 11.1 uM
  Max normalized Response: 0.07366
[1]; conc 33.3 uM
  Max normalized Response: 0.04125
[1]; conc 100 uM
  Max normalized Response: 0.03532

## CN1CCC[C@H]1c1cccnc1 [nicotine]
Unmodified α7–5HT3
  activity at unmutated α7–5HT3 chimeric channel: agonist
Unmodified α7–5HT3; a75HT3, Nicotine, used for normalization
  max response of each dose-response replicate: 0.486 (2×) and 0.554 (2×) and 0.608 (2×)
Unmodified α7–5HT3; [2]
  Max normalized response, AVG: 0.008293
  Max normalized response, replicates: 0 (2×) and 0.02166 (2×) and 0.01151 (2×)
  Response, dose-response replicates (DR 1-6): 0 (2×) and 0.012 (2×) and 0.007 (2×)
Unmodified α7–5HT3; a75HT3, [Nicotine] 0.137174 uM
  Max normalized response, AVG: 0.001891
  Max normalized response, replicates: 0.002058 (2×) and 0.001805 (2×) and 0.001645 (2×)
  Response, dose-response replicates (DR 1-6): 0.001
Unmodified α7–5HT3; a75HT3, [Nicotine] 0.411523 uM
  Max normalized response, AVG: 0.009729
  Max normalized response, replicates: 0.004115 (2×) and 0.03069 (2×) and 0 (2×)
  Response, dose-response replicates (DR 1-6): 0.002 (2×) and 0.017 (2×) and 0 (2×)
Unmodified α7–5HT3; a75HT3, [Nicotine] 1.23457 uM
  Max normalized response, AVG: 0.08187
  Max normalized response, replicates: 0.1152 (2×) and 0 (2×) and 0.09704 (2×)
  Response, dose-response replicates (DR 1-6): 0.056 (2×) and 0 (2×) and 0.059 (2×)
Unmodified α7–5HT3; a75HT3, [Nicotine] 3.7037 uM
  Max normalized response, AVG: 0.6699
  Max normalized response, replicates: 0.8354 (2×) and 0.4874 (2×) and 0.5214 (2×)
  Response, dose-response replicates (DR 1-6): 0.406 (2×) and 0.27 (2×) and 0.317 (2×)
Unmodified α7–5HT3; a75HT3, [Nicotine] 11.1111 uM
  Max normalized response, AVG: 1
  Max normalized response, replicates: 1
  Response, dose-response replicates (DR 1-6): 0.486 (2×) and 0.554 (2×) and 0.608 (2×)
Unmodified α7–5HT3; a75HT3, [Nicotine] 33.3333 uM
  Max normalized response, AVG: 0.8953
  Max normalized response, replicates: 0.8436 (2×) and 0.9711 (2×) and 0.9227 (2×)
  Response, dose-response replicates (DR 1-6): 0.41 (2×) and 0.538 (2×) and 0.561 (2×)
Unmodified α7–5HT3; a75HT3, [Nicotine] 100 uM
  Max normalized response, AVG: 0.8025
  Max normalized response, replicates: 0.9585 (2×) and 0.8503 (2×) and 0.5988
  Response, dose-response replicates (DR 1-6): 0.291 and 0.531 (2×) and 0.517 (2×)
[1]
  reduced potency for coca-5HT3 versus unmutated α7–5HT3: greater than 300 fold
[1]; Nicotine
  max response of each dose-response replicate: 0.477 and 0.607 and 0.383 and 0.555
[1]; [Nicotine] 1.37037 uM
  Max normalized response, AVG: 0.06271
  Max normalized response, replicates: 0.03243 and 0.1069 and 0.09061 and 0.02089
  Response, dose-response replicates (DR 1-4): 0.051 and 0.055 and 0.008 and 0.018
[1]; [Nicotine] 4.11111 uM
  Max normalized response, AVG: 0.05584
  Max normalized response, replicates: 0.06667 and 0.05451 and 0.03954 and 0.06266
  Response, dose-response replicates (DR 1-4): 0.026 and 0.024 (2×) and 0.037
[1]; [Nicotine] 12.3333 uM
  Max normalized response, AVG: 0.06127
  Max normalized response, replicates: 0.03964 and 0.07966 and 0.08402 and 0.04178
  Response, dose-response replicates (DR 1-4): 0.038 and 0.051 and 0.016 and 0.022
[1]; [Nicotine] 37 uM
  Max normalized response, AVG: 0.1199
  Max normalized response, replicates: 0.1225 and 0.1426 and 0.196 and 0.01828
  Response, dose-response replicates (DR 1-4): 0.068 (2×) and 0.119 and 0.007
[1]; [Nicotine] 111 uM
  Max normalized response, AVG: 0.2452
  Max normalized response, replicates: 0.3009 and 0.2537 and 0.374 and 0.05222
  Response, dose-response replicates (DR 1-4): 0.121 and 0.227 and 0.02 and 0.167
[1]; [Nicotine] 333 uM
  Max normalized response, AVG: 0.4535
  Max normalized response, replicates: 0.5495 and 0.5975 and 0.5157 and 0.1514
  Response, dose-response replicates (DR 1-4): 0.285 and 0.313 and 0.058 and 0.305
[1]; [Nicotine] 1000 uM
  Max normalized response, AVG: 0.6843
  Max normalized response, replicates: 0.8198 and 0.7044 and 0.7249 and 0.4883
  Response, dose-response replicates (DR 1-4): 0.44 and 0.187 and 0.455
[1]; [Nicotine] 3000 uM
  Max normalized response, AVG: 1
  Max normalized response, replicates: 1
  Response, dose-response replicates (DR 1-4): 0.477 and 0.607 and 0.383 and 0.555
[1]; conc 0.0137 uM, ED Fig. 2c
  Response: 0.106
[1]; conc 0.123 uM, ED Fig. 2c
  Response: 0.216
[1]; conc 0.37 uM, ED Fig. 2c
  Response: 0.045
[1]; conc 10 uM, ED Fig. 2c
  Response: 0.163
[1]; conc 30 uM, ED Fig. 2c
  Response: 0.238

## COc1ccc2c3c1O[C@H]1C(=O)CC[C@@]4(O)[C@@H](C2)N(C)CC[C@]314 [oxycodone]
[1]; conc 0.0137 uM, ED Fig. 2c
  Response: 0.109
[1]; conc 0.123 uM, ED Fig. 2c
  Response: 0.086
[1]; conc 0.37 uM, ED Fig. 2c
  Response: 0.066
[1]; conc 10 uM, ED Fig. 2c
  Response: 0.081
[1]; conc 30 uM, ED Fig. 2c
  Response: 0.117
[1]
  activation of coca-5HT3: did not activate

## ecgonine
[1]; conc 0.0137174 uM, ED Fig. 2b
  Response: 0.052
[1]; conc 0.123457 uM, ED Fig. 2b
  Response: 0.065
[1]; conc 0.37037 uM, ED Fig. 2b
  Response: 0.073
[1]; conc 1.11111 uM, ED Fig. 2b
  Response: 0.07
[1]; conc 3.33333 uM, ED Fig. 2b
  Response: 0.053
[1]; conc 10 uM, ED Fig. 2b
  Response: 0.084
[1]; conc 30 uM, ED Fig. 2b
  Response: 0.084
[1]
  activation of coca-5HT3: not activated
